Results from patent USRE39866E1 (Telik, Inc., priority 1997, dated 2007).
Where two headings read alike, the source gives them in different places.

What was measured:
[1] = biological target: T1, human insulin receptors (hIR) (Homo sapiens, UniProt P06213); assay: insulin receptor kinase autophosphorylation assay (captured hIR, anti-phosphotyrosine ELISA); assay type: biochemical; conditions: for agonist activity in IR kinase assay (in words): samples as screened; for activity in IR kinase assay after synthesis or purification: synthesized or extensively purified / HPLC-purified material
T1 construct: partially purified from placental extracts or from cell line IM-9; from tissue; host or cells: human placental extracts or cell line IM-9
Procedure: This assay is a modified form of that described in Hagino, H. et al. Diabetes (1994) 43:274-280. […] The partially purified hIRs were captured into microplate wells by incubating them for 90 minutes with wells coated with a monoclonal antibody to hIR. […] After 60 minutes, the wells were washed, and then treated for 60 minutes with biotinylated antibody directed against phosphotyrosine (PY-20) and unbound materials again washed away. The wells were then incubated with a conventional streptavidin peroxidase system for 30 minutes to assess the level of phosphorylated tyrosine.

[2] = biological target: T2, insulin receptor on human lymphocytic cell line IM-9 (Homo sapiens, UniProt P06213); assay: insulin receptor agonist activity on whole IM-9 cells (lysate ELISA); assay type: cell-based
T2 construct: on whole cells, i.e., on the human lymphocytic cell line IM-9; endogenous in cells; host or cells: IM-9 human lymphocytic cell line
Procedure: The cells were then lysed in 0.5% Tween 20 and lysates analyzed in an ELISA assay as described in paragraph A, without the steps of incubation with ATP.

human insulin receptor = biological target: T3, human insulin receptor (Homo sapiens, UniProt P06213); assay: phosphorylation of artificial substrate poly(Glu4Tyr) by activated receptor, labeled ATP; assay type: biochemical
T3 construct: partially purified from placental extracts or from cell line IM-9; from tissue; host or cells: human placental extracts or cell line IM-9

3T3-L1 fibroblast cells [3] = assay: glucose transport in 3T3-L1 cell line; assay type: cell-based
Description: (§1) Insulin also enhances glucose transport in this cell line.

3T3-L1 fibroblast cells [4] = assay: differentiation of 3T3-L1 fibroblasts to adipocyte-like morphology (Oil Red O uptake); assay type: cell-based
Description: as §1

[5] = biological target: T4, recombinantly produced β chain lacking the insulin-binding domain (Homo sapiens, UniProt P06213); assay: phosphorylation of substrate peptide Raytide by recombinant beta chain kinase; assay type: biochemical; conditions: 25 μM
T4 construct: purchased Stratagene, Inc
Procedure: The ability of this kinase to phosphorylate a substrate peptide (Raytide from Oncogene Sciences) is stimulated by TER12 at 25 μM.

[6] = tested on: Glut4 transporter in 3T3-L1 adipocytes; assay: distribution of Glut4 transporter in 3T3-L1 adipocytes (immunofluorescence); assay type: cell-based; conditions: 15 minutes incubation
Description: The results were visualized under a fluorescent microscope.

T2 sequence (P06213 763-1382 limits assumed): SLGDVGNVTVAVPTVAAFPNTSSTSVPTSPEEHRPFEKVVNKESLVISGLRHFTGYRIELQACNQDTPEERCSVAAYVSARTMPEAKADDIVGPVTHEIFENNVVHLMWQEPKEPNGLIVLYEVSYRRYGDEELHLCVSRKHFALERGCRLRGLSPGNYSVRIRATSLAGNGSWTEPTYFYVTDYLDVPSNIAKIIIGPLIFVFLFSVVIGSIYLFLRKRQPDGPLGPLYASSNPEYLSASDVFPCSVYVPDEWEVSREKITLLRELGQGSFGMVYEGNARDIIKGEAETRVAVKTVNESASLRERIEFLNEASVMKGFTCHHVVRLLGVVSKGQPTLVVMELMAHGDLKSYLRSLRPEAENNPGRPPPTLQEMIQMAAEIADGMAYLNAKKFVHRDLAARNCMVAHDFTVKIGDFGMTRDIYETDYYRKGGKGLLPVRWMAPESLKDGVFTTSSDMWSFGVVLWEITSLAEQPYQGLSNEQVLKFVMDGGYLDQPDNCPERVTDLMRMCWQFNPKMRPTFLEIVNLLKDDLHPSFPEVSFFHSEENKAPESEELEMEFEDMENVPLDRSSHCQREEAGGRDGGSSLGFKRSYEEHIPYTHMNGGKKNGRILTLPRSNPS
T2 sequence (P06213 28-758 partner limits assumed): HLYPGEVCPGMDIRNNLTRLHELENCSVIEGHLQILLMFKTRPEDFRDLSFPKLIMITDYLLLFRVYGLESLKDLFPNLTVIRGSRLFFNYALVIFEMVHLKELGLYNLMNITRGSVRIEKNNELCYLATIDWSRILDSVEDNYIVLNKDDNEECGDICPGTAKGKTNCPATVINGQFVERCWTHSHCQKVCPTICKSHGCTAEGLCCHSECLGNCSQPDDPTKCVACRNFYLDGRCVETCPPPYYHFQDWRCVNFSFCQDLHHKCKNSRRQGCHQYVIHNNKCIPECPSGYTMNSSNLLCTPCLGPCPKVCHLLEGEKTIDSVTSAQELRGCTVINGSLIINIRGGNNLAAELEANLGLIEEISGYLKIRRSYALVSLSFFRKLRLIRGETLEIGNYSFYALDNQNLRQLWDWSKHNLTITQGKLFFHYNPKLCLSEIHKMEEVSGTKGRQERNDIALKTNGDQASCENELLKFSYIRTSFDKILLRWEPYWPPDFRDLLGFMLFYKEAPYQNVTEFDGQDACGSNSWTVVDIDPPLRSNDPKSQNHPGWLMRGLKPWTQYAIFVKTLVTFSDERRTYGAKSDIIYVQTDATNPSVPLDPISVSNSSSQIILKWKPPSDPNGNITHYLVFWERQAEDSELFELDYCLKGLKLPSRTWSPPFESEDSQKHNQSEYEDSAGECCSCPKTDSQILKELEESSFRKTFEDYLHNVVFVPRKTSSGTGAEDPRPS
T3 sequence (P06213 763-1382 limits assumed): as the sequence (P06213 763-1382 limits assumed) above
T3 sequence (P06213 28-758 partner limits assumed): as the sequence (P06213 28-758 partner limits assumed) above
T1 sequence (P06213 763-1382 limits assumed): as the sequence (P06213 763-1382 limits assumed) above
T1 sequence (P06213 28-758 partner limits assumed): as the sequence (P06213 28-758 partner limits assumed) above
T4 sequence (P06213 763-1382 limits assumed): as the sequence (P06213 763-1382 limits assumed) above

Row | Compound | increase in phosphorylation on addition to insulin ([1]; 60 μM sample added to hIR contacted with 0.3 nM insulin) | stimulation of autophosphorylation ([1]; absence of insulin, 20 μM of sample composed mainly of TER12) | EC50 ([1]; read-out: EC50 for enhancing insulin stimulation, sample calculated as TER12) [µM] | agonist activity in IR kinase assay (in words) [1] | activity in IR kinase assay after synthesis or purification [1] | increase of basal insulin receptor kinase activity ([2]; 5 minutes exposure, sample containing 20 μM TER12) | increase of insulin stimulated insulin receptor kinase activity ([2]; 5 minutes exposure, sample containing 20 μM TER12, with insulin) | percent of maximal phosphorylation (human insulin receptor; 0.5 nM insulin plus 20 μM TER12 sample) [%] | percent of maximal phosphorylation (human insulin receptor; 5 nM insulin plus TER12 sample) [%] | percent of maximal insulin-stimulated activity (human insulin receptor; about 20 μM sample calculated as TER12, no insulin) [%] | stimulation of glucose transport (3T3-L1 fibroblast cells [3]; sample alone) | effect on insulin-stimulated glucose transport (3T3-L1 fibroblast cells [3]; with insulin) | effect on insulin-induced differentiation (3T3-L1 fibroblast cells [4]; 20 μM with insulin) | effect on differentiation (3T3-L1 fibroblast cells [4]; sample alone) | stimulation of kinase phosphorylation of Raytide [5] | activity in IR kinase assay of insoluble compound ([1]; insoluble compound after washing sample with aqueous sodium carbonate) | EC50 ([1]; read-out: EC50 in in vitro autophosphorylation assay) [µM] | enhancement of insulin-stimulated autophosphorylation of insulin receptor ([2]; intact IM-9 cells) | redistribution of Glut4 [6]
1 | O=C(Nc1cc(S(=O)(=O)[O-])cc2cc(S(=O)(=O)[O-])c(N=Nc3cc(Nc4nc(Cl)nc(Nc5ccc(S(=O)(=O)[O-])cc5)n4)ccc3S(=O)(=O)[O-])c(O)c12)c1ccccc1.[Na+].[Na+].[Na+].[Na+] [TER12, Cibacron Brilliant Red 3BA] | approximately three-fold | over five-fold | ~20 | apparent agonist activity | active | two-fold | five-fold | 120 | 140 | 75 | failed to stimulate glucose transport significantly | enhanced the ability of insulin to do so | enhances the differentiating effect of insulin | does not appear to effect differentiation | stimulated | – | – | – | –
2 | COc1ccccc1NC(=O)C(N=Nc1ccc(-c2nc3ccc(C)c(S(=O)(=O)[O-])c3s2)cc1S(=O)(=O)[O-])C(C)=O.[Na+].[Na+] (stereo not drawn) [TER3938, Direct Yellow 27] | – | – | – | agonist activity | retained its activity | – | – | – | – | – | – | – | – | – | – | less active | 8 | enhanced the activity of insulin | –
3 | insulin | – | – | – | – | – | – | – | – | – | – | – | – | – | – | – | – | – | – | dramatic redistribution of Glut4 to the membrane surfaces
